In ChEMBL document CHEMBL1130504, “Synthesis and biological activity of artificial analogs of mycalamide A” (Bioorg Med Chem Lett, 1997):
In brackets after ≈: the same amount, converted by molar mass.

What was measured:
Vero [1] = assay: In vitro inhibitory concentration for antiviral activity was tested against vero cells; type: functional, cell-based; details: Chlorocebus sabaeus
HEL [2] = assay: In vitro inhibitory concentration for antiviral activity was tested against HEL cells; type: functional, cell-based; details: Homo sapiens
HeLa = assay: In vitro inhibitory concentration for cytotoxic activity was tested against HeLa cells; type: functional, cell-based; details: Homo sapiens
Vero [3] = assay: (§1) In vitro minimum inhibitory concentration for antiviral activity was tested against Herpes simplex virus type 1(HSV-1); type: functional; details: Chlorocebus sabaeus
HEL [4] = assay: (§2) In vitro minimum inhibitory concentration for antiviral activity was tested against Varicella-Zoster virus(VZV); type: functional; details: Homo sapiens
Human alphaherpesvirus 1 = assay: as §1; type: functional
Human alphaherpesvirus 3 = assay: as §2; type: functional

SMILES | IC50 (Vero [1]) | IC50 (HEL [2]) | IC50 (HeLa) | MIC (Vero [3]) | MIC (HEL [4]) | MIC (Human alphaherpesvirus 1) | MIC (Human alphaherpesvirus 3)
C=C1C[C@](OC)([C@H](O)C(=O)N[C@@H]2OCO[C@@H]3[C@@H](OC)[C@H](O)[C@@H](CO)O[C@@H]32)O[C@H](C)[C@@H]1C | > 50 µg/mL | > 50 µg/mL | > 10 µg/mL | > 50 µg/mL | 25 µg/mL (≈ 55.9 µM) |  | 
C=C1C[C@](OC)([C@@H](O)C(=O)N[C@@H]2OCO[C@H]3[C@@H]2O[C@H](C[C@H](O)CO)C(C)(C)[C@@H]3OC)O[C@H](C)[C@@H]1C | > 50 µg/mL | > 50 µg/mL | > 10 µg/mL | 50 µg/mL (≈ 99.3 µM) | 12.5 µg/mL (≈ 24.8 µM) |  | 
C=C1C[C@@H](C)O[C@@](OC)([C@H](O)C(=O)N[C@@H]2OCO[C@H]3[C@@H]2O[C@H](C[C@H](O)CO)C(C)(C)[C@@H]3OC)C1 | 50 µg/mL (≈ 102 µM) | > 50 µg/mL | 3 µg/mL (≈ 6.13 µM) | 50 µg/mL (≈ 102 µM) | 1.56 µg/mL (≈ 3.19 µM) |  | 
CO[C@@H]1[C@H]2OCO[C@@H](NC(=O)[C@@H](O)[C@@]3(OC)CCC[C@@H](C)O3)[C@H]2O[C@H](C[C@H](O)CO)C1(C)C | > 50 µg/mL | > 50 µg/mL | > 10 µg/mL | 50 µg/mL (≈ 105 µM) | 3.12 µg/mL (≈ 6.54 µM) |  | 
C=C1C[C@](OC)([C@H](O)C(=O)N[C@@H]2OCO[C@@H]3[C@@H](OC)[C@@H]4OC(C)(C)OC[C@H]4O[C@@H]32)O[C@H](C)[C@@H]1C | 50 µg/mL (≈ 103 µM) | > 50 µg/mL | 10 µg/mL (≈ 20.5 µM) |  |  | 50 µg/mL (≈ 103 µM) | 12.5 µg/mL (≈ 25.6 µM)
C=C1C[C@](OC)([C@H](O)C(=O)N[C@H]2OCO[C@@H]3[C@@H](OC)[C@H](O)[C@@H](CO)O[C@@H]32)O[C@H](C)[C@@H]1C | 25 µg/mL (≈ 55.9 µM) | > 50 µg/mL | 1 µg/mL (≈ 2.23 µM) | 25 µg/mL (≈ 55.9 µM) | 3.12 µg/mL (≈ 6.98 µM) |  | 
C=C1C[C@](OC)([C@@H](O)C(=O)N[C@H]2OCO[C@H]3[C@@H]2O[C@H](C[C@H](O)CO)C(C)(C)[C@@H]3OC)O[C@H](C)[C@@H]1C | 12.5 µg/mL (≈ 24.8 µM) | 12.5 µg/mL (≈ 24.8 µM) | > 10 µg/mL | 50 µg/mL (≈ 99.3 µM) | < 0.391 µg/mL |  | 
C=C1C[C@@H](C)O[C@@](OC)([C@H](O)C(=O)N[C@H]2OCO[C@H]3[C@@H]2O[C@H](C[C@H](O)CO)C(C)(C)[C@@H]3OC)C1 | < 0.391 µg/mL | < 0.391 µg/mL | < 0.03 µg/mL | < 0.391 µg/mL | < 0.391 µg/mL |  | 
CO[C@@H]1[C@H]2OCO[C@H](NC(=O)[C@@H](O)[C@@]3(OC)CCC[C@@H](C)O3)[C@H]2O[C@H](C[C@H](O)CO)C1(C)C | 0.391 µg/mL (≈ 0.819 µM) | 1.56 µg/mL (≈ 3.27 µM) | 0.03 µg/mL (≈ 0.0628 µM) | 3.12 µg/mL (≈ 6.54 µM) | < 0.391 µg/mL |  | 
C=C1C[C@](OC)([C@H](O)C(=O)N[C@H]2OCO[C@@H]3[C@@H](OC)[C@@H]4OC(C)(C)OC[C@H]4O[C@@H]32)O[C@H](C)[C@@H]1C | > 50 µg/mL | > 50 µg/mL | 3 µg/mL (≈ 6.15 µM) |  |  | 50 µg/mL (≈ 103 µM) | 12.5 µg/mL (≈ 25.6 µM)
C=C1C[C@](OC)([C@H](O)C(=O)N[C@@H]2OCO[C@H]3[C@@H]2O[C@H](C[C@H](O)CO)C(C)(C)[C@@H]3OC)O[C@H](C)[C@@H]1C | 12.5 µg/mL (≈ 24.8 µM) | 12.5 µg/mL (≈ 24.8 µM) | 3 µg/mL (≈ 5.96 µM) | 12.5 µg/mL (≈ 24.8 µM) | 1.56 µg/mL (≈ 3.1 µM) |  | 
Nc1nc2c(ncn2COCCO)c(=O)[nH]1 [ACYCLOVIR] | 50 µg/mL (≈ 222 µM) | > 50 µg/mL |  |  |  | 1.56 µg/mL (≈ 6.94 µM) | 
O=c1[nH]cc(F)c(=O)[nH]1 [FLUOROURACIL] |  |  | 3 µg/mL (≈ 23.1 µM) |  |  |  | 
C=C1C[C@](OC)([C@H](O)C(=O)N[C@H]2OCO[C@H]3[C@@H]2O[C@H](C[C@H](O)CO)C(C)(C)[C@@H]3OC)O[C@H](C)[C@@H]1C [MYCALAMIDE A] | < 0.391 µg/mL | < 0.391 µg/mL | < 0.03 µg/mL | < 0.391 µg/mL | < 0.391 µg/mL |  | 
